In ChEMBL document CHEMBL1147984, “Discovery, synthesis, and in vivo activity of a new class of pyrazoloquinazolines as selective inhibitors of aurora B kinase” (J Med Chem, 2007):
Converted amounts (≈) assume the structure as drawn. “And” between values parts separate entries of the source, which are not always exact repeats. Identical values can stand only once.

Key:
[1] = protein binding; format: ADME; settings: read-out: PB (converted)
[2] = aqueous solubility; format: physicochemical; settings: read-out: S
Aurora kinase A [3] = target: T1, Aurora kinase A (Homo sapiens, UniProt O14965)
T1 sequence (O14965 whole entry): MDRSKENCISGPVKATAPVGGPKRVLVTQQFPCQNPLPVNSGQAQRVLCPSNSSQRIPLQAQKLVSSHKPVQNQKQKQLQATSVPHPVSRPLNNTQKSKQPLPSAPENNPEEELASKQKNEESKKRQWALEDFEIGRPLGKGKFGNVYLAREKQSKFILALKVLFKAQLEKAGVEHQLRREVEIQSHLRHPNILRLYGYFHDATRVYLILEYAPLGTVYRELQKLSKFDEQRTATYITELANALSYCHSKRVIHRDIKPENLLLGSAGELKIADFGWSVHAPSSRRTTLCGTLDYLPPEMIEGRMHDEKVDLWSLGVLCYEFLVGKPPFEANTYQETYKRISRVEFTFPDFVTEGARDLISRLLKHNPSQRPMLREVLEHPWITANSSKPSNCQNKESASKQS
Description: (§1) Inhibition of human recombinant Aurora A

Aurora kinase B = Aurora kinase B (Homo sapiens, UniProt Q96GD4)
Sequence of Aurora kinase B (Q96GD4 whole entry): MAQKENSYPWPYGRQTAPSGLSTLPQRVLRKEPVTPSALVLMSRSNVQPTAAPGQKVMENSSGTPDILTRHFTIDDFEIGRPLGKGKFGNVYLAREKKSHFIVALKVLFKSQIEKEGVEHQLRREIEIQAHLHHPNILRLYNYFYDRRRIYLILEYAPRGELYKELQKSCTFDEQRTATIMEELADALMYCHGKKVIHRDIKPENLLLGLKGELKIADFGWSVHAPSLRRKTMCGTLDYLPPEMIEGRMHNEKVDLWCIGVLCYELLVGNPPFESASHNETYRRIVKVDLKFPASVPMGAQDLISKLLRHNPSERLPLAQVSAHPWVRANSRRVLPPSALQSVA
Description: Inhibition of human recombinant Aurora B

Aurora kinase A [4] = target: T1, Aurora kinase A; remark: listed apart in the source
Description: as §1

physchem = settings: octanol/water, pH 7.4
[5] = P450 isoforms 3A4; format: ADME
in vivo = settings: rat
[6] = rat
[7] = solubility (tris buffer pH9); format: physicochemical; settings: pH 9, read-out: S

Description for SW-620: inhibition of histone-H3 phosphorylation following 24 hr incubation in SW620 tumor cells

Q: For `COc1cc2c(Nc3ncc(CC(=O)Nc4cccc(F)c4)s3)ncnc2cc1OCCCN1CCC(CO)CC1`, which fraction unbound [1] is on record?
A: Its fraction unbound is 0.02.

Q: What about the Ki (SW-620) of the same molecule?
A: Its Ki is 0.005 µM.

Q: Which solubility [2] does the source give for `COc1cc2c(Nc3ncc(CC(=O)Nc4cccc(F)c4)s3)ncnc2cc1OCCCN1CCC(COP(=O)(O)O)CC1` here?
A: The solubility was over 10 mg/mL.

Q: Which Ki (Aurora kinase A [3]) does the source give for `COc1cc2c(Nc3cc(CC(=O)Nc4cccc(F)c4)[nH]n3)ncnc2cc1OCCCN(C)CCO` here?
A: The Ki was 0.065 µM.

Q: And the Ki (Aurora kinase B)?
A: The Ki was under 0.001 µM.

Q: What about the Ki (SW-620) of the same molecule?
A: The Ki was 0.12 µM.

Q: What does the source list for `CCCN(CCO)CCCOc1ccc2c(Nc3cc(CC(=O)Nc4cccc(F)c4F)[nH]n3)ncnc2c1`?
A: Ki (Aurora kinase A [3]): 0.35 µM; Ki (Aurora kinase B): < 0.001 µM; Ki (SW-620): 0.002 µM

Q: What does the source list for `COc1cc2c(Nc3cc(CC(=O)Nc4cccc(O)c4)[nH]n3)ncnc2cc1OCCCN1CCC(CO)CC1`?
A: Ki (Aurora kinase A [3]): 4 µM; Ki (SW-620): > 10 µM; Ki (Aurora kinase A [4]): 0.14 µM

Q: Which Ki (Aurora kinase A [3]) does the source give for `COc1cc2c(Nc3cc(CC(=O)Nc4cccc(F)c4F)[nH]n3)ncnc2cc1OCCCN1CCC(O)CC1` here?
A: Its Ki is 0.22 µM.

Q: What about the Ki (Aurora kinase B) of the same molecule?
A: Its Ki is under 0.001 µM.

Q: What about the Ki (SW-620) of the same molecule?
A: Its Ki is 0.078 µM.

Q: What does the source list for `CCN(CCO)CCCOc1cc2ncnc(Nc3cc(CC(=O)Nc4cccc(F)c4F)[nH]n3)c2cc1OC`?
A: Ki (Aurora kinase A [3]): 0.36 µM; logD (physchem): 1.9; IC50 [5]: > 10 µM; Ki (Aurora kinase B): < 0.001 µM; fraction unbound [1]: 0.17; Ki (SW-620): 0.045 µM

Q: Which results are given for `COc1cc2c(Nc3cc(CC(=O)Nc4cccc(F)c4F)[nH]n3)ncnc2cc1OCCCN1CCC[C@H]1CO`?
A: Ki (Aurora kinase A [3]): 0.039 µM; Ki (Aurora kinase B): < 0.001 µM; Ki (SW-620): 0.045 µM

Q: For `O=C(Cc1cc(Nc2ncnc3cc(OCCCN4CCC[C@@H]4CO)ccc23)n[nH]1)Nc1cccc(F)c1F`, which Ki (Aurora kinase A [3]) is on record?
A: The Ki was 0.95 µM.

Q: What about the logD (physchem) of the same molecule?
A: The logD was 2.1.

Q: And the clearance (in vivo)?
A: The clearance was 15 mL/min/kg.

Q: What about the AB [6] of the same molecule?
A: The AB was 89%.

Q: What about the Ki (Aurora kinase B) of the same molecule?
A: Its Ki is under 0.001 µM.

Q: What about the Ki (SW-620) of the same molecule?
A: Its Ki is 0.005 µM.

Q: Which solubility [7] does the source give for `CCCN(CCCOc1cc2ncnc(Nc3cc(CC(=O)Nc4cccc(F)c4F)[nH]n3)c2cc1OC)CCOP(=O)(O)O` here?
A: The solubility was 25 mg/mL (≈ 38.5 mM).

Q: Which results are given for `O=C(Cc1cc(Nc2ncnc3cc(OCCCN4CCC[C@@H]4CO)ccc23)n[nH]1)Nc1cccc(F)c1`?
A: Ki (Aurora kinase A [3]): 1.4 µM; Ki (Aurora kinase B): < 0.001 µM; Ki (SW-620): 0.024 µM

Q: Which Ki (Aurora kinase A [3]) does the source give for `CCN(CCO)CCCOc1cc2ncnc(Nc3cc(CC(=O)Nc4cccc(F)c4)[nH]n3)c2cc1OC` here?
A: Its Ki is 0.19 µM.

Q: And the logD (physchem)?
A: Its logD is 2.1.

Q: And the Ki (Aurora kinase B)?
A: Its Ki is 0.001 µM.

Q: What about the fraction unbound [1] of the same molecule?
A: Its fraction unbound is 0.05.

Q: What about the Ki (SW-620) of the same molecule?
A: Its Ki is 0.27 µM.

Q: Which results are given for `CCN(CCO)CCCOc1ccc2c(Nc3cc(CC(=O)Nc4cccc(F)c4F)[nH]n3)ncnc2c1`?
A: Ki (Aurora kinase A [3]): 0.16 µM; Ki (Aurora kinase B): < 0.001 µM; Ki (SW-620): 0.007 µM

Q: With `CCCN(CCO)CCCOc1ccc2c(Nc3cc(CC(=O)Nc4cccc(F)c4)[nH]n3)ncnc2c1` as the molecule, how does the Ki (Aurora kinase A [3]) read?
A: Its Ki is 0.98 µM.

Q: What about the Ki (Aurora kinase B) of the same molecule?
A: Its Ki is under 0.001 µM.

Q: And the Ki (SW-620)?
A: The Ki was 0.007 µM.

Q: Which results are given for `COc1cc2c(Nc3cc(CC(=O)Nc4cccc(Cl)c4)[nH]n3)ncnc2cc1OCCCN1CCC(CO)CC1`?
A: Ki (Aurora kinase A [3]): 0.45 µM; Ki (SW-620): 1.2 µM; Ki (Aurora kinase A [4]): 0.008 µM

Q: With `COc1cc2c(Nc3cc(CC(=O)Nc4cccc(F)c4F)[nH]n3)ncnc2cc1OCCCN(CCO)CC(C)C` as the molecule, how does the Ki (Aurora kinase A [3]) read?
A: Its Ki is 0.018 µM.

Q: And the logD (physchem)?
A: Its logD is 3.6.

Q: What about the IC50 [5] of the same molecule?
A: Its IC50 is 0.4 µM.

Q: And the Ki (Aurora kinase B)?
A: The Ki was under 0.001 µM.

Q: What about the Ki (SW-620) of the same molecule?
A: Its Ki is under 0.001 µM.

Q: For `COc1cc2c(Nc3cc(CC(=O)Nc4ccc(F)cc4)[nH]n3)ncnc2cc1OCCCN1CCC(CO)CC1`, which Ki (Aurora kinase A [3]) is on record?
A: Its Ki is 2 µM.

Q: And the Ki (SW-620)?
A: Its Ki is 2.6 µM.

Q: And the Ki (Aurora kinase A [4])?
A: The Ki was 0.03 µM.

Q: With `COc1cc2c(Nc3cc(CC(=O)Nc4cccc(C#N)c4)[nH]n3)ncnc2cc1OCCCN1CCC(CO)CC1` as the molecule, how does the Ki (Aurora kinase A [3]) read?
A: The Ki was 2.6 µM.

Q: What about the Ki (SW-620) of the same molecule?
A: Its Ki is over 10 µM.

Q: And the Ki (Aurora kinase A [4])?
A: Its Ki is 0.083 µM.

Q: For `CCCN(CCO)CCCOc1cc2ncnc(Nc3cc(CC(=O)Nc4cccc(F)c4)[nH]n3)c2cc1OC`, which Ki (Aurora kinase A [3]) is on record?
A: The Ki was 0.22 µM.

Q: And the Ki (Aurora kinase B)?
A: Its Ki is 0.002 µM.

Q: And the Ki (SW-620)?
A: Its Ki is 0.29 µM.

Q: For `COc1cc2c(Nc3cc(CC(=O)Nc4cc(F)cc(F)c4)[nH]n3)ncnc2cc1OCCCN1CCC(CO)CC1`, which Ki (SW-620) is on record?
A: Its Ki is 0.37 µM.

Q: With `COc1cc2c(Nc3cc(CC(=O)Nc4cccc(F)c4F)[nH]n3)ncnc2cc1OCCCN1CCC(CO)CC1` as the molecule, how does the Ki (SW-620) read?
A: Its Ki is 0.54 µM.

Q: For `COc1cc2c(Nc3cc(CC(=O)Nc4cccc([N+](=O)[O-])c4)[nH]n3)ncnc2cc1OCCCN1CCC(CO)CC1`, which Ki (Aurora kinase A [3]) is on record?
A: The Ki was 0.89 µM.

Q: What about the Ki (SW-620) of the same molecule?
A: The Ki was over 10 µM.

Q: What about the Ki (Aurora kinase A [4]) of the same molecule?
A: The Ki was 0.039 µM.

Q: Which Ki (Aurora kinase A [3]) does the source give for `COc1cc2c(Nc3cc(CC(=O)Nc4cccc(F)c4F)[nH]n3)ncnc2cc1OCCCN1CCC(CCO)CC1` here?
A: Its Ki is 0.28 µM.

Q: And the Ki (Aurora kinase B)?
A: Its Ki is under 0.001 µM.

Q: And the Ki (SW-620)?
A: Its Ki is 0.13 µM.

Q: Which Ki (Aurora kinase A [3]) does the source give for `COc1cc2c(Nc3cc(CC(=O)Nc4cccc(F)c4F)[nH]n3)ncnc2cc1OCCCN1CCC[C@@H]1CO` here?
A: Its Ki is 0.094 µM.

Q: What about the logD (physchem) of the same molecule?
A: The logD was 2.

Q: What about the clearance (in vivo) of the same molecule?
A: The clearance was 63 mL/min/kg.

Q: And the AB [6]?
A: The AB was 85%.

Q: And the Ki (Aurora kinase B)?
A: The Ki was 0.001 µM.

Q: And the fraction unbound [1]?
A: Its fraction unbound is 0.15.

Q: And the Ki (SW-620)?
A: Its Ki is 0.042 µM.

Q: For `COc1cccc(NC(=O)Cc2cc(Nc3ncnc4cc(OCCCN5CCC(CO)CC5)c(OC)cc34)[nH]n2)c1`, which Ki (SW-620) is on record?
A: Its Ki is 5.5 µM.

Q: Which solubility [7] does the source give for `COc1cc2c(Nc3cc(CC(=O)Nc4cccc(F)c4F)[nH]n3)ncnc2cc1OCCCN1CCC[C@@H]1COP(=O)(O)O` here?
A: The solubility was 25 mg/mL (≈ 38.6 mM).

Q: What does the source list for `COc1cc2c(Nc3cc(CC(=O)Nc4cccc(F)c4)[nH]n3)ncnc2cc1OCCCNCCO`?
A: Ki (Aurora kinase A [3]): 0.69 µM; Ki (Aurora kinase B): 0.001 µM; Ki (SW-620): 0.63 µM

Q: Which Ki (Aurora kinase A [3]) does the source give for `COc1cc2c(Nc3cc(CC(=O)Nc4cccc(F)c4F)[nH]n3)ncnc2cc1OCCCN1CCN(CCO)CC1` here?
A: Its Ki is 0.055 µM.

Q: And the Ki (Aurora kinase B)?
A: The Ki was under 0.001 µM.

Q: And the Ki (SW-620)?
A: The Ki was 0.071 µM.

Q: What does the source list for `COc1cc2c(Nc3cc(CC(=O)Nc4ccccc4)[nH]n3)ncnc2cc1OCCCN1CCC(CO)CC1`?
A: Ki (Aurora kinase A [3]): 1.6 µM and 1.2 µM; Ki (Aurora kinase A [4]): 0.018 µM

Q: For `COc1cc2c(Nc3cc(CC(=O)Nc4cccc(C(F)(F)F)c4)[nH]n3)ncnc2cc1OCCCN1CCC(CO)CC1`, which Ki (Aurora kinase B) is on record?
A: Its Ki is 0.51 µM.

Q: What about the Ki (SW-620) of the same molecule?
A: Its Ki is 1.8 µM.

Q: What about the Ki (Aurora kinase A [4]) of the same molecule?
A: The Ki was 0.013 µM.

Q: With `O=C(Cc1cc(Nc2ncnc3cc(OCCCN4CCC[C@@H]4COP(=O)(O)O)ccc23)n[nH]1)Nc1cccc(F)c1F` as the molecule, how does the solubility [7] read?
A: Its solubility is 25 mg/mL (≈ 40.5 mM).

Q: Which results are given for `COc1cc2c(Nc3cc(CC(=O)Nc4cccc(F)c4)[nH]n3)ncnc2cc1OCCCN1CCC[C@@H]1CO`?
A: Ki (Aurora kinase A [3]): 0.11 µM; Ki (Aurora kinase B): 0.001 µM; fraction unbound [1]: 0.05; Ki (SW-620): 0.33 µM

Q: For `COc1cc2c(Nc3cc(CC(=O)Nc4ccccc4F)[nH]n3)ncnc2cc1OCCCN1CCC(CO)CC1`, which Ki (Aurora kinase A [3]) is on record?
A: The Ki was 1.4 µM and 0.47 µM.

Q: And the Ki (Aurora kinase A [4])?
A: Its Ki is 0.014 µM.

Q: For `CCN(CCCOc1ccc2c(Nc3cc(CC(=O)Nc4cccc(F)c4)n[nH]3)ncnc2c1)CCOP(=O)(O)O` [BARASERTIB], which solubility [7] is on record?
A: The solubility was 25 mg/mL (≈ 42.5 mM).
